The record followed here is patent US8741319B2, “Methods and compositions for treating anxiety disorders or symptoms thereof” (Pondera Biotechnologies Inc., priority 2009, dated 2014).

“Also recorded” adds a separate entry of the source.

In data set [1] the test system is humans. In words: Hot-water finger-immersion induced pain trials (Example 1). It is filed as in vivo, human. To be noted: for undesirable side effects, first phase: 18 subjects, rolipram 50 μg, forskolin 200 mg, magnesium sulfate 2 g/5 g, caffeine 200 mg, each given within two-agent formulations; for side effects / complaints, second phase: 60 subjects, caffeine 50 mg, theophylline 300 mg, ULDN 5 μg, magnesium sulfate 750 mg, alone or combined; for pain thresholds and tolerance as compared to baseline latencies: index finger in 130° F. water, single dose, not blinded as to condition. As for the experimental part: For these trials, a hot-water finger-immersion pain paradigm was used, measuring both pain threshold and tolerance. The index finger of the non-dominant hand was submerged in 130° F. water, and the time to the experience of pain (threshold) and the need to withdraw (tolerance) were measured. Baseline scores were compared to those obtained under experimental conditions. Experimental conditions were not blinded for this study.
For the preliminary part of this study, 18 subjects (10 males, 8 females; ages 27-86) were given each of the following single-dose formulations on separate days, to determine the best doses for pain reduction and side-effect profiles:
The same induced pain paradigm was used for the second phase of this study. 60 subjects (38 males, 22 females, ages 18-86), including all of the subjects in the first phase of the study, participated in the study. All subjects were administered each of the following formulations in a single dose, on separate days; while 18 of these subjects (10 males, 8 females) were given these formulations using a twice daily administration over the course of 3 consecutive days. The following formulations were administered to each subject to assess the effect of each agent, as compared to baseline, as well as the synergistic impact of co-treatment: […]

Data set [2] concerns Healthy volunteers. In words: Cold-pressor induced pain study (Example 8A). In kind it is in vivo, human. As to conditions: 12 subjects, blinded, within-subject. The protocol:
In addition to the hot-water finger immersion studies described above, two Jeio Tech cold-pressor testing units were purchased since this methodology represents the state-of-the art in induced pain research.
Following several preliminary multi-site trials using a wide variety of agents, doses, and formulations, a cold-pressor induced pain study was conducted in order to determine the impact of specific agents on the experience of pain threshold and tolerance. Healthy volunteers were recruited who were not taking any relevant medications or supplements, resulting in a total of 12 subjects (7 men, 5 women; ages 18-86). During the initial phase of this study, the following agents and doses were administered to subjects and pain threshold and tolerance latencies were assessed. […] Subjects were blinded as to each condition. Active agents were compared to each subject's baseline and placebo latencies, using a within-subject design. […]

For data set [3], the system named is outpatient psychotherapy patients with various forms of Distress Dysfunction. In words: Clinical case studies, outpatient psychotherapy patients (Example 8B). To be noted: 5 or 125 μg once daily within formulations. In kind it is in vivo, human.
Method: All treatment was unblinded, and explained as novel formulations for Distress Dysfunction. […] Synergistic Enhancers were often included in the formulations, particularly SSRI and SNRI medications that the patients were typically taking prior to adding the experimental formulations (about 25% of patients). For those patients already on an SSRI or SNRI, the following daily doses were used, once the patient was stabilized on the co-treatment formulation: escitalopram (10 mg, once daily), fluoxetine (20 mg, once daily), citalopram (20 mg, once daily), or venlafaxine (75 mg, once daily). For most patients, this was either the same or lower dose than previously prescribed. If the patient was not already on an SSRI or SNRI, one or more Synergistic Enhancers were added to the formulation for more serious conditions, including 5HTP (50 mg, twice daily), SAMe (200 mg, once daily), PharmaGABA (200 mg, once daily), and tyrosine (500 mg, once daily) (about 18% of patients). Ten pain patients began the treatment program using a prescription narcotic pain medication. […] As an alternative to narcotic pain medications, NSAIDs, especially white willow bark (250 mg, twice daily) were added to the formulation (about 10% of patients). […]
Data set [4] has as its system patients in psychotherapy suffering from various Distress Dysfunction conditions. Nature of the data set: 10 month trial, agents alone vs combined, 19 psychotherapy patients (Example 5). To be noted: for therapeutic benefits on Distress Dysfunction symptoms: 19 patients, 2 weeks per agent or formulation, agents not identified to patients. As for the experimental part: To determine the relative benefits of administering agents alone as compared to their combined synergistic benefits, a trial was conducted over a 10 month period with 19 patients in psychotherapy suffering from various Distress Dysfunction conditions, including anxiety, obsessive-compulsive disorders, depression, drug and alcohol addictions, behavioral addictions, psychogenic and neuropathic pain, eating disorders, and sexual dysfunctions.
Over the course of 8 weeks, each patient was administered all of the individual agents. During the next 8 weeks, each patient rotated through the following formulations, each given for a 2 week period: […]
All patients already on an SSRI or SNRI continued on this medication in combination with ULDN.

The test system of data set [5] is subjects. In words: Hot-water finger-immersion pain threshold/tolerance, five subjects (Example 4). In kind it is in vivo, human. As to conditions: separate testing sessions.
The subject of data set [6] is males with ADHD. In words: Attention-Deficit Disorder case studies (Example 10). In kind it is in vivo, human. As to conditions: for improvement of ADHD behavior and attention: single case studies (males). As for the experimental part: To assess the therapeutic benefit of the novel cotreatment formulations of the invention with Attention-Deficit Disorders, three ongoing case studies are being conducted, one focused on the use of stimulants and the other based on “nutriceuticals.”
A person with severe uncontrolled ADHD has had serious problems with their inappropriate behaviors, emotions, and attitudes, both at school and at home, for more than 8 years. […] NAC (600 mg, twice daily) was added to the ongoing medication. […] The young person was able to sit quietly for longer periods of time and was clearly more cooperative and socially appropriate. […] Increased improvement has been observed over the past month, and the cotreatment formulation is being continued.
A person with moderate ADHD has had difficulties paying attention at school and cooperating at home. They have never been given prescription medications for the problem, and behavioral interventions have not been successful. […] Then, NAC (600 mg, twice daily), magnesium sulfate (500 mg, twice daily), and ginkgo biloba (120 mg, once daily) were added to the ALC. […] Progress has been steadily improving, using this novel cotreatment formulation during this 3 week trial, which is ongoing.
A person with severe ADHD has had problems in all aspects of their life due to this disorder. Despite above average intelligence, they were unable to complete high school. After dropping out of school, they were able to earn a GED. Over time, they were unable to hold regular employment. […] They will continue this co-treatment formulation, given its obvious benefits.

For `C=C[C@@]1(C)CC(=O)[C@]2(O)[C@@]3(C)[C@@H](O)CCC(C)(C)[C@@H]3[C@H](O)[C@H](OC(C)=O)[C@@]2(C)O1` [Forskolin], the “undesirable side effects, first phase” value in data set [1] is listed as “produced mild agitation for several subjects”.
With `COc1ccc(C2CNC(=O)C2)cc1OC1CCCC1` (centres unmarked) [Rolipram, rolipram], the “undesirable side effects, first phase” value in data set [1] is given as “produced a queasy sensation for several of the subjects”. Further, the side effects entry in data set [1] (one subject took 250 μg of rolipram) is “experienced nausea, vomiting, and diarrhea”.
As for `COc1cccc(C2(O)CCCCC2CN(C)C)c1` (centres unmarked) [Tramadol, tramadol], the “pain threshold and tolerance latencies vs baseline and placebo, agents administered alone” value in data set [2] is reported as “did not generally exhibit analgesia on the cold pressor”.
As to `O=C1CC[C@@]2(O)[C@H]3Cc4ccc(O)c5c4[C@@]2(CCN3CC2CC2)[C@H]1O5` [ULDN, naltrexone], the “consistency of benefit by naltrexone dose” value in data set [3] was “the benefits from using the relatively higher dose (125 micrograms) were more consistent within and among patients”. Further, the “side effects / complaints, second phase” value in data set [1] is listed as “had neither benefit nor side effects”. Further, in data set [4] (once daily), the “therapeutic benefits on Distress Dysfunction symptoms” value (“therapeutic benefits” below) was “nearly half of the patients experienced no effect from ULDN alone”. The “improvement in symptoms in patients on ongoing SSRI or SNRI medication” value in data set [4] (ULDN 5 μg added, patients on Lexapro, Prozac, Paxil or Effexor) is given as 10 patients had dramatic improvement in their symptoms.
With `CC(=O)Nc1ccc(O)cc1` [acetaminophen], the “pain threshold and tolerance latencies vs baseline and placebo, agents administered alone” value in data set [2] was “no more effective than placebo in the cold pressor paradigm”. In data set [5], the “increase in pain threshold/tolerance (over baseline)” value is “in order of greatest pain relief, was (3), then (2) then (1)”. The “therapeutic benefits” value in data set [4] (once daily) is “no therapeutic benefits were reported or observed”. Further, the “maintenance treatment, remaining six months of the study” value in data set [4] (each patient on the formulation that worked best) is “used effectively by four pain patients”. Also, in data set [4] (human, in vivo), the increased distress symptoms entry is reported as “at least half of the patients reported some degree of increased distress symptoms”.
`CC(=O)O[C@H](CC(=O)[O-])C[N+](C)(C)C` [acetyl-L-carinitine]: the “improvement of ADHD behavior and attention” value in data set [6] is recorded as “no observable benefits”.
As for `CC(=O)Oc1ccccc1C(=O)O` [aspirin], in data set [2], the “pain threshold and tolerance latencies vs baseline and placebo, agents administered alone” value is given as “no more effective than placebo in the cold pressor paradigm”. Besides, the “increase in pain threshold/tolerance (over baseline)” value in data set [5] is “showed no change in pain threshold when administered alone”.
For `Cn1c(=O)c2c(ncn2C)n(C)c1=O` [caffeine], the “pain threshold and tolerance latencies vs baseline and placebo, agents administered alone” value in data set [2] is recorded as “tended to result in shorter pain tolerance latencies”. For the same compound, in data set [1], the “undesirable side effects, first phase” value is “produced mild agitation for several subjects”; the “side effects / complaints, second phase” value is given as “complained of these symptoms when given these drugs alone”; the “pain thresholds and tolerance as compared to baseline latencies” value is on record as “trend toward increased pain sensitivity (hyperalgesia)”. In addition, the increased distress symptoms entry in data set [4] (agent administered alone, once daily, 2 weeks) was “at least half of the patients reported some degree of increased distress symptoms”.
Consider `N[C@@H](CCC(=O)O)C(=O)O` [glutamic acid], for which the “pain threshold and tolerance latencies vs baseline and placebo, agents administered alone” value in data set [2] is recorded as “showed clear hyperalgesic effects when administered alone; also recorded: tended to result in shorter pain tolerance latencies”.
Same read-out and setting: in the case of `CC(C)Cc1ccc(C(C)C(=O)O)cc1` (centres unmarked) [ibuprophen] it was “no more effective than placebo in the cold pressor paradigm”.
On to `O=S(=O)([O-])[O-].[Mg+2]` [magnesium sulfate], for which, in data set [1], the “undesirable side effects, first phase” value is “produced mild queasy feelings for several subjects” and the “side effects / complaints, second phase” value is “had neither benefit nor side effects”.
`COC(=O)C(c1ccccc1)C1CCCCN1` (centres unmarked) [methylphenidate]: in data set [6] (single case studies), the side effects entry is “produced mild restlessness, sleep difficulties, and reduced appetite; also recorded: several undesirable side-effects, including insomnia, anorexia, and agitation”. Further, the “improvement of ADHD behavior and attention” value in data set [6] is “only modest improvements; also recorded: almost no benefit”.
As for `COc1ccc2c3c1O[C@H]1C(=O)CC[C@@]4(O)[C@@H](C2)N(C)CC[C@]314` [oxycodone (5 mg), oxycodone], the entries for the “pain threshold and tolerance latencies vs baseline and placebo, agents administered alone” value in data set [2] and in data set [2] (listed as lower dose oxycodone) were “consistently showed this effect” and “did not generally exhibit analgesia on the cold pressor”, respectively.
For the compound `O=C(Nc1c(Cl)cncc1Cl)c1ccc(OC(F)F)c(OCC2CC2)c1` [roflumilast], the “pain threshold and tolerance latencies vs baseline and placebo, agents administered alone” value in data set [2] is recorded as “showed clear hyperalgesic effects when administered alone; also recorded: tended to result in shorter pain tolerance latencies”. Besides, the “therapeutic benefits” value in data set [4] (once daily) is on record as “no therapeutic benefits were reported or observed”. The increased distress symptoms result in data set [4] (human, in vivo) is on record as “at least half of the patients reported some degree of increased distress symptoms”.
In the case of `Cn1c(=O)c2[nH]cnc2n(C)c1=O` [theophylline], the “pain threshold and tolerance latencies vs baseline and placebo, agents administered alone” value in data set [2] is listed as “tended to result in shorter pain tolerance latencies”. Further, in data set [1], the “side effects / complaints, second phase” value is “complained of these symptoms when given these drugs alone”; the “pain thresholds and tolerance as compared to baseline latencies” value is “trend toward increased pain sensitivity (hyperalgesia)”.
